From patent US8604034B2, “Substituted imidazo[1,2-α]pyrrolo[1,2-d]pyrazines for treating respiratory syncytial virus (RSV) infections” (Biota Scientific Management Pty Ltd., priority 2010, dated 2013)
Where a name gives a salt, the structure may show the parent alone. Read-outs that look alike come from different tables or passages of the source.

Test system: RSV A2
Assay: RSV antiviral cytopathic effect (CPE) assay
Format: cell-based
Conditions: human respiratory syncytial virus, HEp-2, 120 h, HEp2 cells infected with RSV A2 (moi ~0.01), 5 days, MTT readout
Summary of the method: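 HEp2 cells infected with RSV A2 (moi ~0.01) and incubated with serially diluted compound for 5 days at 37 °C. CPE read by MTT metabolism (absorbance 540/650 nm); uninfected cells gave cytotoxicity. EC50 and CC50 obtained by non-linear regression.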

[1] = read-out: Activity Range (RSV A2 EC50)
[2] = mean EC50, read-out: RSV A2 EC50

EC50 [1] | EC50 [2] | Compound
500 to 10000 nM | 550 nM | Cc1nocc1C(=O)N1CCN2C(=O)c3cc(-c4cccn4C)nn3CC12c1ccc(Cl)cc1 (stereo not shown) [Compound 140]
500 to 10000 nM | 750 nM | Cc1nocc1C(=O)N1CCN2C(=O)c3cccn3CC12c1ccc(=O)n(C)c1 (stereo not shown) [Compound 143, 1-[(3-methyl-1,2-oxazol-4-yl)carbonyl]-10a-(1-methyl-6-oxo-1,6-dihydropyridin-3-yl)-2,3,10,10a-tetrahydro-1H,5H-imidazo[1,2-a]pyrrolo[1,2-d]pyrazin-5-one]
50 to 99 nM | 79 nM | Cc1nocc1C(=O)N1CCN2C(=O)c3cc(-c4cnn(C)c4)cn3CC12c1ccc(CO)cc1 (stereo not shown) [Compound 144]
500 to 10000 nM | 3700 nM | COc1ccc(C23Cn4cc(-c5nnnn5C)cc4C(=O)N2CCN3C(=O)c2conc2C)cc1 (stereo not shown) [Compound 145, 10a-(4-methoxyphenyl)-1-[(3-methyl-1,2-oxazol-4-yl)carbonyl]-7-(1-methyl-1H-tetrazol-5-yl)-2,3,10,10a-tetrahydro-1H,5H-imidazo[1,2-a]pyrrolo[1,2-d]pyrazin-5-one]
< 49 nM | 46 nM | COc1ccc(C23Cn4cc(-c5nnn(C)n5)cc4C(=O)N2CCN3C(=O)c2conc2C)cc1 (stereo not shown) [Compound 146, 10a-(4-methoxyphenyl)-1-[(3-methyl-1,2-oxazol-4-yl)carbonyl]-7-(2-methyl-2H-tetrazol-5-yl)-2,3,10,10a-tetrahydro-1H,5H-imidazo[1,2-a]pyrrolo[1,2-d]pyrazin-5-one]
100 to 499 nM | 390 nM | COc1ccc(C23Cn4cc(CN)cc4C(=O)N2CCN3C(=O)c2conc2C)cc1 (stereo not shown) [Compound 147, 7-(aminomethyl)-10a-(4-methoxyphenyl)-1-[(3-methyl-1,2-oxazol-4-yl)carbonyl]-2,3,10,10a-tetrahydro-1H,5H-imidazo[1,2-a]pyrrolo[1,2-d]pyrazin-5-one; trifluoroacetate salt]
100 to 499 nM | 130 nM | COc1ccc(C23Cn4c(cccc4=O)C(=O)N2CCN3C(=O)c2conc2C)cc1 (stereo not shown) [Compound 149]
< 49 nM | 5.8 nM | COc1ccc(C23Cn4c(C)ccc4C(=O)N2CCN3C(=O)c2conc2C)cn1 (stereo not shown) [Compound 152]
< 49 nM | 2.3 nM | Cc1nocc1C(=O)N1CCN2C(=O)c3ccc(C)n3CC12c1ccc(F)cc1 (stereo not shown) [Compound 154, 10a-(4-fluorophenyl)-8-methyl-1-[(3-methyl-1,2-oxazol-4-yl)carbonyl]-2,3,10,10a-tetrahydro-1H,5H-imidazo[1,2-d]pyrrolo[1,2-d]pyrazin-5-one]
100 to 499 nM | 360 nM | COc1ccc(C23Cn4nccc4C(=O)N2CCN3C(=O)c2conc2C)cc1 (stereo not shown) [Compound 157]

Further lines, the compound ahead of its results:

Compound | EC50 [1] | EC50 [2]
Cc1ccc(C23Cn4nc(-c5ccccn5)cc4C(=O)N2CCN3C(=O)c2conc2C)cc1 (stereo not shown) [Compound 139] | 50 to 99 nM | 66 nM
Cc1nocc1C(=O)N1CCN2C(=O)c3cc(-c4cccs4)nn3CC12c1ccc(Cl)cc1 (stereo not shown) [Compound 141] | < 49 nM | 39 nM
Cc1nocc1C(=O)N1CCN2C(=O)c3cccn3CC12c1ccc(O)nc1 (stereo not shown) [Compound 142, 10a-(6-hydroxypyridin-3-yl)-1-[(3-methyl-1,2-oxazol-4-yl)carbonyl]-2,3,10,10a-tetrahydro-1H,5H-imidazo[1,2-a]pyrrolo[1,2-d]pyrazin-5-one] | 500 to 10000 nM | 6700 nM
Cc1nocc1C(=O)N1CCN2C(=O)c3cccc(=O)n3CC12c1ccc(F)cc1 (stereo not shown) [Compound 148] | < 49 nM | 38 nM
Cc1ccc(C23Cn4c(cccc4=O)C(=O)N2CCN3C(=O)c2conc2C)cc1 (stereo not shown) [Compound 150] | < 49 nM | 11 nM
Cc1ccc(C23Cn4c(C)ccc4C(=O)N2CCN3C(=O)c2conc2C)cn1 (stereo not shown) [Compound 151] | < 49 nM | 8.7 nM
Cc1nocc1C(=O)N1CCN2C(=O)c3ccc(C)n3CC12c1ccc(CO)cc1 (stereo not shown) [Compound 153] | < 49 nM | 6.2 nM
